Laboratory results from patent publication US8501771B2, “Aminoalcohol-substituted aryldihydroisoquinolinones, process for their preparation and their use as medicaments” (Sanofi, priority 2006, dated 2013).
pIC50: −log10 of the molar value.

The compounds below were run against T1, human MCH receptor (Homo sapiens, UniProt Q99705) (assay: Functional IC50 of MCH1R antagonists: cellular calcium flux (FLIPR) after addition of agonist MCH). Conditions: recombinant HEK293 cell line expressing the human MCH receptor.
T1 construct: expressed in transfected cells
T1 sequence (Q99705 whole entry): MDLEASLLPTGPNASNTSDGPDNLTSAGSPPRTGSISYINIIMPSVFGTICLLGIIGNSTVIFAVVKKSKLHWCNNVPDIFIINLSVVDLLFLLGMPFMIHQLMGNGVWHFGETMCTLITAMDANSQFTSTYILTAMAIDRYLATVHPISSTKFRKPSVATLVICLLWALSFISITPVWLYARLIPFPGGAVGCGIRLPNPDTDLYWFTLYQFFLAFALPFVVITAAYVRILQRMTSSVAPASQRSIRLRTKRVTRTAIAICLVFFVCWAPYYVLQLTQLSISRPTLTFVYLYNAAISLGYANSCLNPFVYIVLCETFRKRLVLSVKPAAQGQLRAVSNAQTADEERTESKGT
Format: cell-based
Description: Influence on the MCH receptor in vitro; determination of functional IC50 values of MCH1R antagonists
Cloning of the cDNA for the human MCH receptor, preparation of a recombinant HEK293 cell line which expresses the human MCH receptor, and functional measurements with the recombinant cell line took place in analogy to the description by Audinot et al. (J. Biol. Chem. 276, 13554-13562, 2001). A difference from the reference was, however, the use of the plasmid pEAK8 from EDGE Biosystems (USA) for the construction of the expression vector. The host used for the transfection was a transformed HEK cell line named “PEAK Stable Cells” (likewise from EDGE Biosystems). Functional measurements of the cellular calcium flux after addition of agonist (MCH) in the presence of ligand of the invention took place with the aid of the FLIPR apparatus from Molecular Devices (USA), using protocols of the apparatus manufacturer. The compounds of the invention show a significant inhibition (>30%) of the signal induced by the agonist at a concentration of 100 μM, preferably at 10 μM, particularly preferably at 1 μM, very particularly preferably at 100 nM and even more particularly preferably at 10 nM.
Table 8 summarizes the results which were obtained by the above described calcium […] assay.
For `COCCOc1ccc2c(c1)CCN(c1ccc(OCCN3CCCC3)c(OC)c1)C2=O` [Example 15], the pIC50 was 5.26. In the case of `CCC(O)C#Cc1ccc2c(c1)CCN(c1ccc(O[C@H]3C[C@H]4CC[C@@H](C3)N4C)c(Cl)c1)C2=O` (stereo partly drawn) [Example 42], the pIC50 was 6.11. `CCCCOc1ccc2c(c1)CCN(c1ccc(OC[C@@H]3CCCN4CCCC[C@H]34)cc1)C2=O` [Example 9] was tested, and the pIC50 was 6.06. `CN1[C@@H]2CC[C@H]1C[C@@H](Oc1ccc(N3CCc4cc(OCC5CCC5)ccc4C3=O)cc1Cl)C2` [Example 17] gave a pIC50 of 5.94. Work on `COc1cc(-n2ccc3cc(OC[C@@H]4CCCO4)ccc3c2=O)ccc1OCCN1C2CCC1CC2` [Example 86] yielded a pIC50 of 6.68. Work on `COc1cc(-n2ccc3cc(OC[C@@H]4CCCO4)ccc3c2=O)ccc1OCCN1CC2CCCCC2C1` (stereo partly drawn) [Example 84] yielded a pIC50 of 6.60. `COc1cc(-n2ccc3cc(OC[C@H]4CCCO4)ccc3c2=O)ccc1OC1CN2CCC1CC2` (stereo partly drawn) [Example 69] was tested, and the pIC50 was 5.93. In the case of `O=c1c2ccc(OC[C@H]3CCCO3)cc2ccn1-c1ccc(O[C@H]2C[C@H]3CC[C@@H](C2)N3C2CC2)c(F)c1` [Example 75], the pIC50 was 5.30. `Cc1cc(-n2ccc3cc(OC[C@H]4CCCO4)ccc3c2=O)ccc1O[C@H]1C[C@H]2CC[C@@H](C1)N2CC(C)(C)O` [Example 72] gave a pIC50 of 6.31. `CN1[C@@H]2CC[C@H]1C[C@@H](Oc1ccc(N3CCc4cc(OC5CSC5)ccc4C3=O)cc1Cl)C2` [Example 26, 2-[3-Chloro-4-((1R,3R,5S)-8-methyl-8-azabicyclo[3.2.1]oct-3-yloxy)phenyl]-6-(thietan-3-yloxy)-3,4-dihydro-2H-isoquinolin-1-one] gave a pIC50 of 4.83. `CCCCOc1ccc2c(c1)CCN(c1ccc(O[C@H]3C[C@H]4CC[C@@H](C3)N4C)c(Cl)c1)C2=O` [Example 1, 6-Butoxy-2-[3-chloro-4-((1R,3R,5S)-8-methyl-8-azabicyclo[3.2.1]oct-3-yloxy)-phenyl]-3,4-dihydro-2H-isoquinolin-1-one] was tested, and the pIC50 was 6.03. `COc1cc(-n2ccc3cc(OC[C@@H]4CCCO4)ccc3c2=O)ccc1OCCN1CCCC1` [Example 65] gave a pIC50 of 6.89. With `COc1cc(-n2ccc3cc(OC[C@@H]4CCCO4)ccc3c2=O)ccc1OCCN1CC2CCC2C1` (stereo partly drawn) [Example 83, 2-{4-[2-(3-Azabicyclo[3.2.0]hept-3-yl)ethoxy]-3-methoxyphenyl}-6-[(S)-1-(tetrahydrofuran-2-yl)methoxy]-2H-isoquinolin-1-one] the pIC50 was 6.08. With `COCCN1[C@@H]2CC[C@H]1C[C@@H](Oc1ccc(-n3ccc4cc(OC[C@H]5CCCO5)ccc4c3=O)cc1C)C2` [Example 74] the pIC50 was 6.85. For `CCCCOc1ccc2c(c1)CCN(c1ccc(O[C@H]3C[C@H]4CC[C@@H](C3)N4CCCF)cc1)C2=O` [Example 89, 6-Butoxy-2-{4-[(1R,3R,5S)-8-(3-fluoropropyl)-8-azabicyclo[3.2.1]oct-3-yloxy]phenyl}-3,4-dihydro-2H-isoquinolin-1-one], the pIC50 was 5.36. `CN1[C@@H]2CC[C@H]1C[C@@H](Oc1ccc(N3CCc4cc(C#CC(C)(C)O)ccc4C3=O)cc1Cl)C2` [Example 45] showed a pIC50 of 5.95. `CCCCOc1ccc2c(c1)CCN(c1ccc(OCCN3CCCC3)c(OC)c1)C2=O` [Example 6] gave a pIC50 of 6.57. `Cc1ccc(-c2cc3c(s2)C(=O)N(c2ccc(OCCN(C)C)cc2)CC3)cc1` [Example 55, 6-[4-(2-Dimethylaminoethoxy)phenyl]-2-p-tolyl-5,6-dihydro-4H-thieno[2,3-c]pyridin-7-one] showed a pIC50 of 5.31. With `CN1[C@@H]2CC[C@H]1C[C@@H](Oc1ccc(-n3ccc4cc(OC[C@@H]5CCCO5)ccc4c3=O)cc1)C2` [Example 56, 2-[4-((1R,3R,5S)-8-Methyl-8-azabicyclo[3.2.1]oct-3-yloxy)phenyl]-6-[(S)-1-(tetrahydrofuran-2-yl)methoxy]-2H-isoquinolin-1-one] the pIC50 was 6.80. `Cc1cc(-n2ccc3cc(OC[C@H]4CCCO4)ccc3c2=O)ccc1O[C@H]1C[C@H]2CC[C@@H](C1)N2Cc1ncc[nH]1` [Example 81] showed a pIC50 of 6.34. `CN1[C@@H]2CC[C@H]1C[C@@H](Oc1ccc(N3CCc4cc(C#CC5(O)CCCC5)ccc4C3=O)cc1Cl)C2` [Example 34] gave a pIC50 of 5.94.
